Laboratory results taken from paper PMC3492248, “Src Kinase Regulation in Progressively Invasive Cancer” (PLoS ONE, 2012).
Like-named read-outs stand apart in the source and are kept apart here. Where a SMILES comes first, the peptide text is derived from it. [ ]: non-standard residue; d: D form. The star is where a group is joined. 5FAM = O=C1OC2(c3ccc(O)cc3Oc3cc(O)ccc32)c2ccc(C(=O)*)cc21; Orn = NCCC[C@H](N)C(=O)O

Assay: Stability of Src peptide substrate 1 in prostate cell lysates
Assay type: in vitro ADME, human
Details: for % Remaining Parent / remaining at 1 h: M-PER lysis buffer, no ATP/Mg2+, 1 h; for remaining at 1 h: read-out: % Remaining Parent
Procedure: Peptides commonly suffer protease-catalyzed degradation in cells as well as in cell lysates. Consequently, prior to examining Src kinase-catalyzed phosphorylation of peptide 1 with lysates, we monitored the stability of the peptide as a function of time. Cells were lysed using Pierce’s M-PER mammalian lysis buffer and, in the absence of ATP and Mg^2+ (i.e. no observable kinase activity), the lysate was added to peptide 1. Only approximately 10% of the peptide is degraded after 1 h (Table S1). Since the phosphorylation rate is measured within 10 min of incubation (Fig. S1), the peptide is sufficiently stable for our needs.
Capillary electrophoresis was performed on a ProteomeLab PA800 system equipped with a laser-induced fluorescence (LIF) detector (Beckman Coulter). The LIF was excited using the 488 nm argon laser. A fused-silica capillary (30/20 cm total/effective length, 50/360 µm inner/outer diameter) was used for separation (Polymicro Technologies). Prior to installation, capillaries were pretreated with 0.1 M NaOH for 12 h, distilled water for 1 h, 0.1 M HCl for 6 h and water again for 12 h. The samples were hydrodynamically injected and separated at 25°C at a constant voltage of 12 kV. The running buffer was 100 mM Borate/100 mM SDS buffer at pH 7.7. Before each run, the capillary was rinsed with 0.1 M NaOH, distilled water, and then the running buffer for 2 min under 20 psi pressure. Data was collected and analyzed using 32 Karat Software (Version 8.0, Beckman Coulter).
All cell lines were acquired from ATCC and grown in a humidified incubator at 37°C with 5% CO2. PZ-HPV-7, RWPE1, WPE1-NA22, WPE1-NB14, WPE1-NB11 and WPE1-NB26 cell lines were cultured in Keratinocyte Serum Free Medium (K-SFM) supplied with 0.05 mg/mL bovine pituitary extract (BPE) and 5 ng/mL epidermal growth factor (EGF) (all provided as a kit from Invitrogen), and 1% penicillin/streptomycin (P/S; Invitrogen). CWR22Rv1 cells were cultured in RPMI-1640 medium (Invitrogen) supplemented with 10% heat-inactivated fetal bovine serum (HI-FBS, Invitrogen) and 1% P/S. DU145 cells were cultured in Eagle’s Minimum Essential Medium (EMEM, ATCC) supplemented with 10% HI-FBS and 1% P/S. PC3 cells were cultured in F-12K medium (ATCC) supplemented with 10% HI-FBS and 1% P/S. Cell lysates were prepared as follows: confluent cells were first trypsinized and collected into 15 mL tubes in the presence of FBS-containing buffer or medium and then washed (3X) with ice cold DPBS buffer. The cells were lysed using M-PER mammalian protein extraction reagent mixed with 5/100 (v/v) Halt protease and phosphatase inhibitor cocktail EDTA-free (Thermo Fisher Scientific) for 10 min at 4°C. Cell debris was removed by centrifuging samples at 14,000 x g for 10 min at 4°C. The total protein concentrations were determined using Dc Protein assay (Bio-Rad).
Cell Line % Remaining Parent

- % Remaining Parent (DU145 cell lysate): 92.9 ± 0.5%
- % Remaining Parent (PC3 cell lysate): 89.2 ± 2.2%
- % Remaining Parent (WPE1-NA22 cell lysate): 92.4 ± 0.8%
- % Remaining Parent (WPE1-NB14 cell lysate): 91.4 ± 1.2%
- % Remaining Parent (WPE1-NB26 cell lysate): 91.0 ± 1.5%
- metabolised at 1 h (human, prostate cell lysates, prostate cell lysate (M-PER mammalian lysis buffer), absence of ATP and Mg2+, after 1 h, read-out: peptide degraded): ~10%
- remaining at 1 h (human, PZ-HPV-7 cell lysate): 92.4 ± 0.2%
- remaining at 1 h (human, RWPE1 cell lysate): 91 ± 0.6%
- remaining at 1 h (human, WPE1-NB11 cell lysate): 89.8 ± 1.5%
Structure (SMILES): CC[C@H](C)[C@H](NC(=O)[C@H](CCC(=O)O)NC(=O)[C@H](CCC(=O)O)NC(=O)[C@H](CCC(=O)O)NC(=O)[C@H](CCCNC(C)=O)NC(=O)c1ccc2c(c1)C(=O)OC21c2ccc(O)cc2Oc2cc(O)ccc21)C(=O)N[C@@H](Cc1ccc(O)cc1)C(=O)NCC(=O)N[C@@H](CCC(=O)O)C(=O)N[C@@H](Cc1ccccc1)C(=O)N[C@@H](CCCNC(C)=O)C(N)=O [peptide 1] (5FAM-[Orn](Ac)EEEIYGEF[Orn](Ac)-NH2)
